According to ChEMBL document CHEMBL4190399, “Spiro[pyrrolidine-3,3'-oxindoles] as 5-HT7 receptor ligands” (Bioorg Med Chem Lett, 2018):

Key:
Homo sapiens [1] = organism: Homo sapiens; assay: Selectivity index, ratio of Ki for human 5-HT1A receptor expressed in HEK293 cell membranes to Ki for human 5-HT7b receptor expressed in HEK293 cell membranes; type: cell-based
[2] = target: 5-hydroxytryptamine receptor 7 (Homo sapiens, UniProt P34969); assay: Displacement of [3H]-5-CT from human 5-HT7b receptor expressed in HEK293 cell membranes after 1 hr at 37 degC by microbeta scintillation counting analysis
5-hydroxytryptamine receptor 7, sequence (P34969 whole entry): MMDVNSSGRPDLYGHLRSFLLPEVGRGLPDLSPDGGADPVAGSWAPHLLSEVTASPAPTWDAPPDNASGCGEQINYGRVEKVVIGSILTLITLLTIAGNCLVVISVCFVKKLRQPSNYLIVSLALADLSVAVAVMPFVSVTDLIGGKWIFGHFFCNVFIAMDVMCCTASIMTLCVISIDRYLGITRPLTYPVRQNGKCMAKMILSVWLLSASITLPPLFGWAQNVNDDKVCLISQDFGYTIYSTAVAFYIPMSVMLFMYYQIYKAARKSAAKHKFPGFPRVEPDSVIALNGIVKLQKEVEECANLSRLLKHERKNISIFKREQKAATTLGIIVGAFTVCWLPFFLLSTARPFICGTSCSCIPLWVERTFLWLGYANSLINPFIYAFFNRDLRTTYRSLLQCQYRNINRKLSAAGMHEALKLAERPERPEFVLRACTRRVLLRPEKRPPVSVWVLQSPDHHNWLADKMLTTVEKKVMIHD

[3] = target: T1, 5-hydroxytryptamine receptor 1A (Homo sapiens, UniProt P08908); assay: Displacement of [3H]-8-OH-DPAT from human 5-HT1A receptor expressed in HEK293 cell membranes after 1 hr by microbeta scintillation counting analysis
T1 sequence (P08908 whole entry): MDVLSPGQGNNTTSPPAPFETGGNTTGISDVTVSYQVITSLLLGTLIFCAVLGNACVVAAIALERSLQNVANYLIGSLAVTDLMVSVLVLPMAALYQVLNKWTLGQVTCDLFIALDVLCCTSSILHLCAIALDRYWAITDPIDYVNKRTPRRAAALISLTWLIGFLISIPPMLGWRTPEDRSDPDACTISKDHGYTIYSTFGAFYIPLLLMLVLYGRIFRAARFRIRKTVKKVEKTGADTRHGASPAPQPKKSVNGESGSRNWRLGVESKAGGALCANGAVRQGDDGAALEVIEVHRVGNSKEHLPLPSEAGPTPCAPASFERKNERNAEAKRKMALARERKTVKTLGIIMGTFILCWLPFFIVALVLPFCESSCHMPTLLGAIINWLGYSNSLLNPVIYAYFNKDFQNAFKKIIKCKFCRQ

[4] = target: 5-hydroxytryptamine receptor 2A (Homo sapiens, UniProt P28223); assay: Displacement of [3H]-Ketanserin from human 5-HT2A receptor expressed in CHO-K1 cell membranes after 1.5 hrs by microbeta scintillation counting analysis
5-hydroxytryptamine receptor 2A, sequence (P28223 whole entry): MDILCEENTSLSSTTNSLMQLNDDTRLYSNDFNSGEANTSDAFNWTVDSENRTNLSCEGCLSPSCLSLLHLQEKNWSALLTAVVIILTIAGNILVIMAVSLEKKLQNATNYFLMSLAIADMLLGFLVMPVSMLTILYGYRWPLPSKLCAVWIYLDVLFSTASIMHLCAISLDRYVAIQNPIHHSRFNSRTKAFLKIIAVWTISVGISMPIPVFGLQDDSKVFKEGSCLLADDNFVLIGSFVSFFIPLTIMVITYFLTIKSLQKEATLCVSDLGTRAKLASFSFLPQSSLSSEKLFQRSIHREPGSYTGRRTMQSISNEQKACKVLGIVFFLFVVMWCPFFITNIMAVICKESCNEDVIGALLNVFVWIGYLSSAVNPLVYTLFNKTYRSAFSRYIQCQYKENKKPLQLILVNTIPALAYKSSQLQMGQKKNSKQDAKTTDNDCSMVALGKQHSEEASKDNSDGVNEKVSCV

Homo sapiens [5] = organism: Homo sapiens; assay: Selectivity index, ratio of Ki for human 5-HT6 receptor expressed in HEK293 cell membranes to Ki for human 5-HT7b receptor expressed in HEK293 cell membranes; type: cell-based
[6] = target: 5-hydroxytryptamine receptor 6 (Homo sapiens, UniProt P50406); assay: Displacement of [3H]-LSD from human 5-HT6 receptor expressed in HEK293 cell membranes after 1 hr at 37 degC by microbeta scintillation counting analysis
5-hydroxytryptamine receptor 6, sequence (P50406 whole entry): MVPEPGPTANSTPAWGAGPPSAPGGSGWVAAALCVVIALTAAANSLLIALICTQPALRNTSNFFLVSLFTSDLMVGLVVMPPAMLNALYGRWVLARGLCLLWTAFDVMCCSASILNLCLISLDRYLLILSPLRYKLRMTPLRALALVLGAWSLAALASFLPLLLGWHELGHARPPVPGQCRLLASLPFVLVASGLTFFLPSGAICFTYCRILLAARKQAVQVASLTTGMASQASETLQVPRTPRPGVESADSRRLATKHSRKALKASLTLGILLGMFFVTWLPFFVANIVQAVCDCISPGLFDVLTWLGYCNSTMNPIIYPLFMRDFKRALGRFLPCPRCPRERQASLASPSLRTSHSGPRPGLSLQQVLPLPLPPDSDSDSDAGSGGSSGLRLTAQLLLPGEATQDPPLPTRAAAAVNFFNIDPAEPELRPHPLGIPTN

Homo sapiens [7] = organism: Homo sapiens; assay: Selectivity index, ratio of Ki for human 5-HT2A receptor expressed in CHO-K1 cell membranes to Ki for human 5-HT7b receptor expressed in HEK293 cell membranes; type: cell-based

Row | Structure (SMILES) | Ratio Ki (Homo sapiens [1]) | Ki [2] [nM] | Ki [3] [nM] | Ki [4] [nM] | Ratio Ki (Homo sapiens [5]) | Ki [6] [nM] | Ratio Ki (Homo sapiens [7])
1 | O=C(c1ccc(Cl)cc1)N1CCN(CCN2CCC3(C2)C(=O)Nc2ccccc23)CC1 (centres undefined) | 91.2 | 529 | 48200 | 17300 | 14.6 | 7750 | 32.8
2 | O=C1Nc2ccccc2C12CCN(CCN1CCC(c3ccc(F)cc3)CC1)C2 (centres undefined) | 189 | 275 | 52000 | 259 | 19.2 | 5280 | 0.9
3 | O=C1Nc2ccccc2C12CCN(CCN1CCN(c3ccc(Cl)cc3)CC1)C2 (centres undefined) | 130 | 29 | 3760 | 68 | 163 | 4740 | 2.3
4 | O=C1Nc2ccccc2C12CCN(CCN1CCN(c3ccccc3Cl)CC1)C2 (centres undefined) | 4.5 | 245 | 1100 | 452 | 11.6 | 2840 | 1.8
5 | O=C1Nc2ccccc2C12CCN(CCN1CCC(c3ccc(Cl)cc3)CC1)C2 (centres undefined) | 52.5 | 284 | 14900 | 404 | 16.1 | 4580 | 1.4
6 | O=C1Nc2ccccc2C12CCN(CCN1CCN(c3cccc(Cl)c3)CC1)C2 (centres undefined) | 48.9 | 55 | 2690 | 351 | 36.5 | 2000 | 6.4
7 | O=C1Nc2ccccc2C12CCN(CCN1CC=C(c3ccc(F)cc3)CC1)C2 (centres undefined) | 91.8 | 43 | 3950 | 75 | 146 | 6270 | 1.7
8 | O=C1Nc2ccccc2C12CCN(CCN1CCN(c3ccc(Cl)c(Cl)c3)CC1)C2 (centres undefined) | 107 | 38 | 4050 | 270 | 29.8 | 1130 | 7.1
9 | O=C1Nc2ccccc2C12CCN(CCCN1CCN(c3ccc(Cl)cc3)CC1)C2 (centres undefined) | 43.1 | 67 | 2890 | 715 | 83 | 5560 | 10.7
10 | O=C1Nc2ccccc2C12CCN(CCN1CCN(c3ccc(F)cc3)CC1)C2 (centres undefined) | 674 | 21 | 14200 | 59 | 226 | 4740 | 2.8
11 | O=C1Nc2ccccc2C12CCN(CCN1CCN(c3ccccc3)CC1)C2 (centres undefined) | 60.1 | 100 | 6000 | 496 | 65.6 | 6560 | 5
12 | O=C1Nc2ccccc2C12CCN(CCN1CCC(Oc3ccc(Cl)cc3)CC1)C2 (centres undefined) | 114 | 121 | 13800 | 343 | 14 | 1690 | 2.8
